The values that follow come from patent publication US20220289698A1, “INHIBITORS OF HUMAN ATGL” (Karl-Franzens-Universität Graz, priority 2019, published 2022).

As a reminder, the IC50 is the concentration that inhibits the measured activity by half. A word on the inhibition: it is the share of the control response that was lost under treatment. The melting point is the temperature, or range, at which the solid turns liquid.

SMILES strings stand for the structures. Like-named read-outs stand apart in the source and are kept apart here. Where only a bound is given, the exact number is not on record here.

Data set [1] concerns the target T1, human ATGL (Homo sapiens, UniProt Q96AD5).
T1 construct: made in house; host or cells: Expi cells (lysate, not purified)
T1 sequence (Q96AD5 1-504): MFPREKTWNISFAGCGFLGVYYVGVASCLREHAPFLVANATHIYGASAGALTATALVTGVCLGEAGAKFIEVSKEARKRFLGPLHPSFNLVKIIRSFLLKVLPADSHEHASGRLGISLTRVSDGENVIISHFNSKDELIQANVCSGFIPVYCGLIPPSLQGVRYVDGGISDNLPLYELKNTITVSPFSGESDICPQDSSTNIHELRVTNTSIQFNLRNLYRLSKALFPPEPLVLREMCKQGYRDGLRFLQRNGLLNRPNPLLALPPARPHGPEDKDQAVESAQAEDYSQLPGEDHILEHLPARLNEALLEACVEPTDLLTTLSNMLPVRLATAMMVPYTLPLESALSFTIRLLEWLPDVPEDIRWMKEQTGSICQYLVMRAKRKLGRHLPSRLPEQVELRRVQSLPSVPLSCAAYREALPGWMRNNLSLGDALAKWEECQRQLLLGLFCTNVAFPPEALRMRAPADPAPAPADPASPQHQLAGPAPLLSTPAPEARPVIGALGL
The experiment in a line: TG hydrolase activity, Expi cell lysates expressing human ATGL + CGI-58, radiolabelled triolein. The format is biochemical. The gist of the method:
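Lysates of Expi cells expressing ATGL, supplemented with purified CGI-58 and inhibitor in DMSO, incubated 1 h at 37 °C with emulsified radiolabelled triolein (330 μM) in potassium phosphate pH 7.0 with 5% FA-free BSA. Released FA counted by liquid scintillation after phase extraction; IC50 versus DMSO control, duplicates.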

Data set [2] deals with T2, murine ATGL (Mus musculus, UniProt Q8BJ56).
T2 construct: made in house; host or cells: Expi cells (lysate)
T2 sequence (Q8BJ56 1-486): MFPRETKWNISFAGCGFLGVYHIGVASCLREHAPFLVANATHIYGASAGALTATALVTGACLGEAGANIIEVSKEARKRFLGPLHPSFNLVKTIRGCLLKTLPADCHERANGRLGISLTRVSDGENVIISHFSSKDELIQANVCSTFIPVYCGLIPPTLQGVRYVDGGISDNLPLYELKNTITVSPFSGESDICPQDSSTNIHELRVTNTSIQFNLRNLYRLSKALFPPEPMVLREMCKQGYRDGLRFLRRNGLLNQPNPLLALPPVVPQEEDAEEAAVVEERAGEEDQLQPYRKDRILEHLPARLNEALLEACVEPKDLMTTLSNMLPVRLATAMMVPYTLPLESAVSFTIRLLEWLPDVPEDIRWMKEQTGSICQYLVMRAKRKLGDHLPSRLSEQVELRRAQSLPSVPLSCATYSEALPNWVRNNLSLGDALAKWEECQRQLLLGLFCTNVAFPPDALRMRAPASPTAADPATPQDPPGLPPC
In words: TG hydrolase activity, Expi lysates expressing mouse ATGL + CGI-58, radiolabelled triolein. Format: biochemical. The gist of the method:
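Lysates of Expi cells overexpressing mouse ATGL, with added recombinant CGI-58, were incubated with inhibitor at 50 μM. Substrate was emulsified radiolabelled triolein with PC/PI in 100 mM potassium phosphate pH 7.0 and 5% FA-free BSA, 1 h at 37° C. Released FA were extracted and counted by scintillation; triplicates, DMSO control.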

For data set [3], the system named is differentiated SGBS adipocytes. In words: Isoproterenol-stimulated lipolysis in differentiated SGBS adipocytes. Conditions: Homo sapiens, 2 h pretreatment, 1 μM isoproterenol 1 h. Format: cell-based. The procedure: Human differentiated SGBS adipocytes were pretreated with DMSO or ATGL inhibitors for 2 h. Subsequently, lipolysis was stimulated with 1 μM Isoproterenol for 1 h and fatty acid release was determined from media via NEFA Reagent (Wako Diagnostics). Samples were measured in triplicates.
Human differentiated SGBS adipocytes were pretreated with DMSO or ATGL inhibitors for 2 h. Subsequently, lipolysis was stimulated with 1 μM Isoproterenol for 1 h and glycerol release was determined from media via Free glycerol reagent (Sigma Aldrich). Samples were measured in triplicates.

Data set [4] deals with T3, mMGL (Mus musculus, UniProt O35678).
T3 construct: made in house; host or cells: E. coli (lysate)
T3 sequence (O35678 1-303): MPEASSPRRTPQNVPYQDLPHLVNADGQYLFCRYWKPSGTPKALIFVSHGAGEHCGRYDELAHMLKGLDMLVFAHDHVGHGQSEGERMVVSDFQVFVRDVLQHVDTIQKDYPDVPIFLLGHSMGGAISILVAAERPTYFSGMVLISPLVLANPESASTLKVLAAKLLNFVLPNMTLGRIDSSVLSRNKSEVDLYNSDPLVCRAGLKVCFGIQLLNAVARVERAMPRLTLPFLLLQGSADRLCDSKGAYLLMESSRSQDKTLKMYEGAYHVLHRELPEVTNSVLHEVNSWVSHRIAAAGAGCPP
In words: mMGL off-target inhibition. Format: biochemical. Conditions: read-out: mMGL off-target inhibition [% inhibition at 100 μM]. The procedure:
Lysates from E. coli expressing mMGL were treated with 100 μM Inhibitors and incubated with 1 mM rac-OG substrate for 10 min. Enzyme activity was measured using the Free Glycerol Reagent. Samples measured in triplicates.

The subject of data set [5] is AML-12 cells. The experiment in a line: Toxicity screening (LDH) in AML-12 cells. The format is cell-based, mouse. Conditions: 24 h treatment, LDH release. The procedure:
AML-12 cells were seeded in 96 well plates and at 80% confluency treated with DMSO (0.5% final conc.) or ATGL Inhibitors for 24 h in DMEM+P/S+3% heat inactivated FCS (3 h at 62° C.). Subsequently, medium was centrifuged at 300 g for 3 min, and LDH activity of 50 μl supernatant was determined via the Roche LDH Kit. Samples measured in triplicates.

[6] abbreviates: Example 237, read-out: Inhibition of human ATGL − IC50.
The mark [7] stands for this setting: 50 μM compound, Example 237, read-out: Inhibition of murine ATGL at 50 μM − mean [%].
The mark [8] stands for this setting: fatty acid release, read-out: IC50 SGBS FA release.
[9] abbreviates: glycerol release, read-out: IC50 SGBS glycerol release.
Setting [10] is: Example 238, read-out: Inhibition of human ATGL IC50.
The mark [11] stands for this setting: 50 μM, Example 238, read-out: % Inhibition of murine ATGL at 50 μM.
The mark [12] stands for this setting: 50 μM, overview table, read-out: mouse ATGL inhibition [% inhibition at 50 μM].

`CCOc1ccc(-c2cc(OC)cc(C(=O)OC(C)C)n2)cc1` [Example 35] registered a melting point of 79 to 81 °C. In addition, the IC50 in data set [1] (setting [6]) was determined as 1 µM. In addition, the inhibition at 50 µM in data set [2] (setting [7]) was 0%. For the same compound, the IC50 in data set [3] (setting [8]) was 1000 nM. The IC50 in data set [3] (setting [9]) is 2000 nM. Further, the inhibition at 100 µM in data set [4] came out at 0%.
With `CCOc1ccc(-c2nc(C(=O)OCc3cccs3)cs2)cc1` [Example 152, Thiophen-2-ylmethyl 2-(4-ethoxyphenyl)thiazole-4-carboxylate], the IC50 in data set [1] (setting [6]) was determined as 10 µM. Besides, in data set [2] (setting [7]), the inhibition at 50 µM amounted to 74%.
For `CCOc1ccc(-c2cccc(C(=O)OCc3cccs3)n2)cc1` [Example 189, Thiophen-2-ylmethyl 6-(4-ethoxyphenyl)picolinate], the melting point lay in the range of 93 to 94 °C. In data set [1] (setting [10]), the IC50 came to 25 µM. The inhibition at 50 µM in data set [2] (setting [11]) worked out at 87%. The inhibition at 100 µM in data set [4] was found to be 0%. The “Tox AML-12 (LDH) seen from” value in data set [5] came to 200 µM.
For `CCOc1ccc(-c2cccc(C(=O)OCc3ccco3)n2)cc1` [Example 190, Furan-2-ylmethyl 6-(4-ethoxyphenyl)picolinate], the melting point lay in the range of 76 to 80 °C. In addition, in data set [1] (setting [10]), the IC50 stood at 15 µM. The inhibition at 50 µM in data set [2] (setting [11]) came out at 80%. In addition, in data set [3] (setting [8]), the IC50 is 12000 nM. In data set [3] (setting [9]), the IC50 turned out to be 25000 nM. For the same compound, in data set [4], the inhibition at 100 µM came to 0%. Moreover, the “Tox AML-12 (LDH) seen from” value in data set [5] stood at 200 µM.
Take `COc1cc(C(=O)OC(C)C)nc(-c2ccc(OC(C)C)cc2)c1` [Example 201, Isopropyl 6-(4-isopropoxyphenyl)-4-methoxypicolinate]: the melting point was 70 to 71 °C. For the same compound, in data set [1] (setting [10]), the IC50 is less than 3 µM. The inhibition at 50 µM in data set [2] (setting [11]) was 45%. For the same compound, the inhibition at 50 µM in data set [2] (setting [12]) turned out to be 0%. In data set [4], the inhibition at 100 µM was found to be 0%. The “Tox AML-12 (LDH) seen from” value in data set [5] turned out to be 200 µM.
For the compound `CC#CCOC(=O)c1csc(-c2ccc(OCC)cc2)n1` [Example 209, But-2-yn-1-yl 2-(4-ethoxyphenyl)thiazole-4-carboxylate], the IC50 in data set [1] (setting [10]) was found to be 10 µM. For the same compound, in data set [2] (setting [11]), the inhibition at 50 µM came out at 76%. Besides, the inhibition at 100 µM in data set [4] was determined as 0%. Also, the “Tox AML-12 (LDH) seen from” value in data set [5] amounted to 100 µM.
With `C#C[C@H](C)OC(=O)c1csc(-c2ccc(OCC)cc2)n1` [Example 210, (S)-But-3-yn-2-yl 2-(4-ethoxyphenyl)thiazole-4-carboxylate], the IC50 in data set [1] (setting [10]) was less than 3 µM; in data set [3] (setting [8]), 600 nM; in data set [3] (setting [9]), 1000 nM. The inhibition at 25 µM in data set [2] (Example 238) stood at 47%. In addition, the inhibition at 50 µM in data set [2] (setting [11]) came to 60%. The inhibition at 100 µM in data set [4] was 0%. Further, the “Tox AML-12 (LDH) seen from” value in data set [5] came out at 200 µM.
In the case of `C#C[C@@H](C)OC(=O)c1csc(-c2ccc(OCC)cc2)n1` [Example 211, (R)-But-3-yn-2-yl 2-(4-ethoxyphenyl)thiazole-4-carboxylate], the IC50 is less than 3 µM in data set [1] (setting [10]), 900 nM in data set [3] (setting [8]) and 900 nM in data set [3] (setting [9]). Further, in data set [2] (Example 238), the inhibition at 25 µM came out at 73%. Besides, the inhibition at 50 µM in data set [2] (setting [11]) amounted to 82%; in data set [2] (setting [12]), 60%. The inhibition at 100 µM in data set [4] amounted to 0%. For the same compound, the “Tox AML-12 (LDH) seen from” value in data set [5] was determined as 100 µM.
Take `CCCCOC(=O)c1csc(-c2ccc(OCC)cc2)n1` [Example 212, Butyl 2-(4-ethoxyphenyl)thiazole-4-carboxylate]: the IC50 in data set [1] (setting [10]) was 7 µM. In addition, the inhibition at 25 µM in data set [2] (Example 238) stood at 47%. In data set [2] (setting [11]), the inhibition at 50 µM came to 56%. For the same compound, the inhibition at 100 µM in data set [4] was 0%. Further, the “Tox AML-12 (LDH) seen from” value in data set [5] came out at 200 µM.
In the case of `CCOc1ccc(-c2nc(C(=O)OCc3ccsc3)cs2)cc1` [Example 215, Thiophen-3-ylmethyl 2-(4-ethoxyphenyl)thiazole-4-carboxylate], the IC50 in data set [1] (setting [10]) is less than 3 µM; in data set [3] (setting [8]), 3000 nM; in data set [3] (setting [9]), 4000 nM. Moreover, in data set [2] (Example 238), the inhibition at 25 µM turned out to be 71%. In addition, the inhibition at 50 µM turned out to be 81% in data set [2] (setting [11]) and 60% in data set [2] (setting [12]). In addition, the inhibition at 100 µM in data set [4] stood at 0%.
With `CCOc1ccc(-c2nc(C(=O)OCc3ccoc3)cs2)cc1` [Example 216, Furan-3-ylmethyl 2-(4-ethoxyphenyl)thiazole-4-carboxylate], the values for the IC50 in data set [1] (setting [10]), in data set [3] (setting [8]) and in data set [3] (setting [9]) were less than 3 µM, 800 nM and 1000 nM, respectively. Besides, the inhibition at 25 µM in data set [2] (Example 238) was found to be 70%. Further, the inhibition at 50 µM in data set [2] (setting [11]) came to 81%. For the same compound, in data set [4], the inhibition at 100 µM was determined as 0%. For the same compound, the “Tox AML-12 (LDH) seen from” value in data set [5] is 50 µM.
As to `CCOc1ccc(-c2nc(C(=O)OCc3ccc(Cl)s3)cs2)cc1` [Example 223, (5-Chlorothiophen-2-yl)methyl 2-(4-ethoxyphenyl)thiazole-4-carboxylate], the IC50 in data set [1] (setting [10]) worked out at 12 µM. Moreover, in data set [2] (setting [11]), the inhibition at 50 µM is 71%. The inhibition at 100 µM in data set [4] stood at 0%.
For `CCOc1ccc(-c2nc(C(=O)OCc3ccc(Br)s3)cs2)cc1` [Example 224, (5-Bromothiophen-2-yl)methyl 2-(4-ethoxyphenyl)thiazole-4-carboxylate], the IC50 in data set [1] (setting [10]) worked out at 12 µM. The inhibition at 50 µM in data set [2] (setting [11]) came out at 68%. Also, in data set [4], the inhibition at 100 µM came to 70%.
